The values below come from patent US20260091026A1, “METHODS OF TREATING INFLAMMATORY DISEASES” (INTERLINE THERAPEUTICS, INC., priority 2023, published 2026).

The term IC50 denotes the concentration needed to halve the response being measured.

In assay [1] the test system is THP1-Dual cells, NF-κB pathway (SEAP). In words: THP-1 Dual cell SEAP assay (L18-MDP stimulated). The assay is classed as cell-based. The note with it: Homo sapiens, 10 ng/mL L18-MDP, 20-24 h, SEAP readout, read-out: IFNγ THP1 IC50. An outline of the steps:
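IC50 values come from non-linear fits of % inhibition of SEAP, measured as QUANTI-Blue optical density (620-655 nm, 2 h) in media-blanked supernatants. These were taken from THP1-Dual cells treated with compound for 30 min before overnight exposure to 10 ng/mL L18-MDP final at 37 °C.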

In assay [2] the target is T1, RIPK2 (KD)/XIAP (BIR2) (Homo sapiens, UniProt O43353).
T1 construct: made in house; host or cells: baculovirus-infected Sf9 cells
T1 sequence (O43353 1-310): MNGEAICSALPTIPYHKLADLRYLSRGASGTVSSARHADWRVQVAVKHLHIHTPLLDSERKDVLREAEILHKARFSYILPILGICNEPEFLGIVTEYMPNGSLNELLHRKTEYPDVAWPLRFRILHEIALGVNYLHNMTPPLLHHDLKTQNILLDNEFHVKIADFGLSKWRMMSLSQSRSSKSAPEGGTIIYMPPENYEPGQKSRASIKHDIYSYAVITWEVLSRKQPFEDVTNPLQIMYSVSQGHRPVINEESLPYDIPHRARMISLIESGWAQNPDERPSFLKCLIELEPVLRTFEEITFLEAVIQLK
In words: RIPK2-XIAP binding competition PPI assay (TR-FRET). The note with it: for Emax: 50 nM of GSK583 = -100% activity, read-out: PPI Amax; for IC50: GST-RIPK2 / His-XIAP (BIR2)-avi, 120 min at 23° C. Put shortly:
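After 2 h at 23 °C, complex formation was read as the 665/520 nm emission ratio (337 nm excitation), scaled between uninhibited reaction and 50 nM GSK583. The mix held 1 nM human RIPK2 kinase fragment-GST, 25 nM His-tagged XIAP BIR2 and Tb/XL665 antibodies in pH 7.5 Tris buffer containing vanadate and glycerophosphate.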
In general terms: In TR-FRET formats the signal depends on donor and acceptor labels being close together.

Bounds are passed on as bounds.

Regarding `CCn1nc(-c2cnc3cc(OCCO)c(S(=O)(=O)C(C)(C)C)cn23)cc1C(=O)N[C@@H](C)c1ccn(C)n1` [Example 123, (S)-3-(6-(tert-butylsulfonyl)-7-(2-hydroxyethoxy)imidazo[1,2-a]pyridin-3-yl)-1-ethyl-N-(1-(1-methyl-1H-pyrazol-3-yl)ethyl)-1H-pyrazole-5-carboxamide], the IC50 in assay [1] is greater than 2.5 µM. Besides, in assay [2], the Emax was no less than 80% and the IC50 fell in the range of 0.1 to 1 µM.
For the compound `CCn1nc(-c2cnc3cc(OC)c(S(=O)(=O)C(C)(C)C)cn23)cc1C(=O)N[C@@H](C)c1ccn(C)n1` [Example 124, (S)-3-(6-(tert-butylsulfonyl)-7-methoxyimidazo[1,2-a]pyridin-3-yl)-1-ethyl-N-(1-(1-methyl-1H-pyrazol-3-yl)ethyl)-1H-pyrazole-5-carboxamide], the results for the half-maximal inhibitory concentration (IC50) in assay [1] and in assay [2] were greater than 2.5 µM and 0.1 to 1 µM, respectively. Further, the Emax in assay [2] was no less than 80%.
Regarding `CCn1nc(-c2cnc3cc(OC)c(S(=O)(=O)C(C)(C)C)cn23)cc1C(=O)N[C@H](C)c1ccn(C)n1` [Example 125, (R)-3-(6-(tert-butylsulfonyl)-7-methoxyimidazo[1,2-a]pyridin-3-yl)-1-ethyl-N-(1-(1-methyl-1H-pyrazol-3-yl)ethyl)-1H-pyrazole-5-carboxamide], the results for the IC50 in assay [1] and in assay [2] were less than 0.1 µM and 0.01 to 0.1 µM, respectively. Further, the Emax in assay [2] is no less than 80%.
For the compound `CCn1nc(-c2cnc3cc(OCCO)c(S(=O)(=O)C(C)(C)C)cn23)cc1C(=O)NCc1ncc(C)s1` [Example 126, 3-(6-(tert-butylsulfonyl)-7-(2-hydroxyethoxy)imidazo[1,2-a]pyridin-3-yl)-1-ethyl-N-((5-methylthiazol-2-yl)methyl)-1H-pyrazole-5-carboxamide], the half-inhibitory concentration (IC50) in assay [1] is less than 0.1 µM. In addition, in assay [2], the Emax is no less than 80% and the IC50 was less than 0.01 µM.
On to `CCn1nc(-c2cnc3cc(OCCO)c(S(=O)(=O)C(C)(C)C)cn23)cc1C(=O)NCc1nccs1` [Example 127, 3-(6-(tert-butylsulfonyl)-7-(2-hydroxyethoxy)imidazo[1,2-a]pyridin-3-yl)-1-ethyl-N-(thiazol-2-ylmethyl)-1H-pyrazole-5-carboxamide], for which the IC50 in assay [1] was less than 0.1 µM. In assay [2], the Emax is no less than 80% and the IC50 was less than 0.01 µM.
As to `CCn1nc(-c2cnc3cc(OCCO)c(S(=O)(=O)C(C)(C)C)cn23)cc1C(=O)NCc1ccsn1` [Example 128, 3-(6-(tert-butylsulfonyl)-7-(2-hydroxyethoxy)imidazo[1,2-a]pyridin-3-yl)-1-ethyl-N-(isothiazol-3-ylmethyl)-1H-pyrazole-5-carboxamide], in assay [1], the IC50 was less than 0.1 µM. Besides, in assay [2], the Emax is no less than 80% and the IC50 is less than 0.01 µM.
`CCn1nc(-c2cnc3cc(OCCO)c(S(=O)(=O)C(C)(C)C)cn23)cc1C(=O)NCc1cc(C)sn1` [Example 129, 3-(6-(tert-butylsulfonyl)-7-(2-hydroxyethoxy)imidazo[1,2-a]pyridin-3-yl)-1-ethyl-N-((5-methylisothiazol-3-yl)methyl)-1H-pyrazole-5-carboxamide]: in assay [1], the 50% inhibitory concentration (IC50) was less than 0.1 µM. Moreover, in assay [2], the Emax is no less than 80% and the IC50 is less than 0.01 µM.
For the compound `CCn1nc(-c2cnc3cc(OCCO)c(S(=O)(=O)C(C)(C)C)cn23)cc1C(=O)N[C@H](C)c1ncc(C)s1` [Example 130, (R)-3-(6-(tert-butylsulfonyl)-7-(2-hydroxyethoxy)imidazo[1,2-a]pyridin-3-yl)-1-ethyl-N-(1-(5-methylthiazol-2-yl)ethyl)-1H-pyrazole-5-carboxamide], the IC50 in assay [1] is less than 0.1 µM. Also, in assay [2], the Emax is no less than 80% and the IC50 was less than 0.01 µM.
For the compound `CCn1nc(-c2cnc3cc(OCCO)c(S(=O)(=O)C(C)(C)C)cn23)cc1C(=O)N[C@@H](C)c1ncc(C)s1` [Example 131, (S)-3-(6-(tert-butylsulfonyl)-7-(2-hydroxyethoxy)imidazo[1,2-a]pyridin-3-yl)-1-ethyl-N-(1-(5-methylthiazol-2-yl)ethyl)-1H-pyrazole-5-carboxamide], the IC50 in assay [1] fell in the range of 0.5 to 2.5 µM. Also, in assay [2], the Emax is no less than 80% and the half-inhibitory concentration (IC50) was 0.01 to 0.1 µM.
For `CCn1nc(-c2cnc3cc(OCCO)c(S(=O)(=O)C(C)(C)C)cn23)cc1C(=O)N[C@H](C)c1cc(C)sn1` [Example 132, (R)-3-(6-(tert-butylsulfonyl)-7-(2-hydroxyethoxy)imidazo[1,2-a]pyridin-3-yl)-1-ethyl-N-(1-(5-methylisothiazol-3-yl)ethyl)-1H-pyrazole-5-carboxamide], the half-maximal inhibitory concentration (IC50) in assay [1] is less than 0.1 µM. Besides, in assay [2], the Emax was no less than 80% and the IC50 was less than 0.01 µM.
For `CCn1nc(-c2cnc3cc(OCCO)c(S(=O)(=O)C(C)(C)C)cn23)cc1C(=O)N[C@@H](C)c1cc(C)sn1` [Example 133, (S)-3-(6-(tert-butylsulfonyl)-7-(2-hydroxyethoxy)imidazo[1,2-a]pyridin-3-yl)-1-ethyl-N-(1-(5-methylisothiazol-3-yl)ethyl)-1H-pyrazole-5-carboxamide], the concentration for half-maximal inhibition (IC50) is 0.5 to 2.5 µM in assay [1] and 0.1 to 1 µM in assay [2]. Moreover, in assay [2], the Emax was no less than 80%.
With `CCn1nc(-c2cnc3cc(OCCO)c(S(=O)(=O)C(C)(C)C)cn23)cc1C(=O)N[C@H](C)c1cc(C)ccn1` [Example 134, (R)-3-(6-(tert-butylsulfonyl)-7-(2-hydroxyethoxy)imidazo[1,2-a]pyridin-3-yl)-1-ethyl-N-(1-(4-methylpyridin-2-yl)ethyl)-1H-pyrazole-5-carboxamide], the IC50 in assay [1] was 0.1 to 0.5 µM. Further, in assay [2], the Emax was no less than 80% and the IC50 fell in the range of 0.01 to 0.1 µM.
With `CCn1nc(-c2cnc3cc(OCCO)c(S(=O)(=O)C(C)(C)C)cn23)cc1C(=O)N[C@@H](C)c1cc(C)ccn1` [Example 135, (S)-3-(6-(tert-butylsulfonyl)-7-(2-hydroxyethoxy)imidazo[1,2-a]pyridin-3-yl)-1-ethyl-N-(1-(4-methylpyridin-2-yl)ethyl)-1H-pyrazole-5-carboxamide], the IC50 in assay [1] was greater than 2.5 µM. Further, in assay [2], the Emax is no less than 80% and the IC50 was greater than 1 µM.
The matching figures for `C[C@@H](NC(=O)c1cc(-c2cnc3cc(OCCO)c(S(=O)(=O)C(C)(C)C)cn23)nn1C1CC1)c1ncccn1` [Example 136, (R)-3-(6-(tert-butylsulfonyl)-7-(2-hydroxyethoxy)imidazo[1,2-a]pyridin-3-yl)-1-cyclopropyl-N-(1-(pyrimidin-2-yl)ethyl)-1H-pyrazole-5-carboxamide]: less than 0.1 µM, no less than 80% and less than 0.01 µM.
On to `CC(C)n1nc(-c2cnc3cc(OCCO)c(S(=O)(=O)C(C)(C)C)cn23)cc1C(=O)N[C@H](C)c1ncccn1` [Example 137, (R)-3-(6-(tert-butylsulfonyl)-7-(2-hydroxyethoxy)imidazo[1,2-a]pyridin-3-yl)-1-isopropyl-N-(1-(pyrimidin-2-yl)ethyl)-1H-pyrazole-5-carboxamide], for which the IC50 in assay [1] was less than 0.1 µM. Also, in assay [2], the Emax was no less than 80% and the IC50 is less than 0.01 µM.
For `COCCn1nc(-c2cnc3cc(OCCO)c(S(=O)(=O)C(C)(C)C)cn23)cc1C(=O)N[C@H](C)c1ncccc1F` [Example 138, (R)-3-(6-(tert-butylsulfonyl)-7-(2-hydroxyethoxy)imidazo[1,2-a]pyridin-3-yl)-N-(1-(3-fluoropyridin-2-yl)ethyl)-1-(2-methoxyethyl)-1H-pyrazole-5-carboxamide], the IC50 fell in the range of 0.1 to 0.5 µM in assay [1] and 0.01 to 0.1 µM in assay [2]. Further, in assay [2], the Emax is no less than 80%.
As for `C[C@@H](NC(=O)c1cc(-c2cnc3cc(OCCO)c(S(=O)(=O)C(C)(C)C)cn23)nn1C1COC1)c1ncccc1F` [Example 139, (R)-3-(6-(tert-butylsulfonyl)-7-(2-hydroxyethoxy)imidazo[1,2-a]pyridin-3-yl)-N-(1-(3-fluoropyridin-2-yl)ethyl)-1-(oxetan-3-yl)-1H-pyrazole-5-carboxamide], the IC50 in assay [1] is 0.1 to 0.5 µM. For the same compound, in assay [2], the Emax is no less than 80% and the 50% inhibitory concentration (IC50) was in the range of 0.01 to 0.1 µM.
For `COc1cc2ncc(-c3cc(C(=O)N[C@H](C)c4ncccc4F)n(C4CN(C(=O)OC(C)(C)C)C4)n3)n2cc1S(=O)(=O)C(C)(C)C` [Example 140, tert-butyl (R)-3-(3-(6-(tert-butylsulfonyl)-7-methoxyimidazo[1,2-a]pyridin-3-yl)-5-((1-(3-fluoropyridin-2-yl)ethyl)carbamoyl)-1H-pyrazol-1-yl)azetidine-1-carboxylate], the IC50 in assay [1] lay within 0.5 to 2.5 µM. Also, in assay [2], the Emax is no less than 80% and the IC50 lay in the range of 0.01 to 0.1 µM.
With `COc1cc2ncc(-c3cc(C(=O)N[C@H](C)c4ncccc4F)n(C4CNC4)n3)n2cc1S(=O)(=O)C(C)(C)C` [Example 141, (R)-1-(azetidin-3-yl)-3-(6-(tert-butylsulfonyl)-7-methoxyimidazo[1,2-a]pyridin-3-yl)-N-(1-(3-fluoropyridin-2-yl)ethyl)-1H-pyrazole-5-carboxamide], the IC50 in assay [1] is greater than 2.5 µM. In addition, in assay [2], the Emax is no less than 80% and the IC50 fell in the range of 0.1 to 1 µM.
The matching figures for `COc1cc2ncc(-c3cc(C(=O)N[C@H](C)c4ccccn4)n(CCO)n3)n2cc1S(=O)(=O)C(C)(C)C` [Example 142, (R)-3-(6-(tert-butylsulfonyl)-7-methoxyimidazo[1,2-a]pyridin-3-yl)-1-(2-hydroxyethyl)-N-(1-(pyridin-2-yl)ethyl)-1H-pyrazole-5-carboxamide]: 0.5 to 2.5 µM, no less than 80% and 0.01 to 0.1 µM.
